# Patent US5736565A, “Therapeutic compounds suitable for the treatment of diseases connected with glutathione deficiency, process for their preparation, and pharmaceutical compositions containing same” (Prospa B.V., priority 1992, dated 1998)
# Peptide text beside a SMILES is read from it.
# Key:
# [1] = system: serum antibodies versus ram erythrocytes; test: Immunization tests versus ram erythrocytes in rat immunodepressed by cyclophosphamide (CTX); format: in vivo, Sprague-Dawley rats; settings: for serum antibodies level (agglutination, Days from immunization): 600 mg/kg i.p. + CTX
# Method: (§1) Sprague-Dawley rats (Charles River, Calco (CO)), aged 10 weeks (young adults) and 24 months (old), were stabled under standard conditions (24°±1° C., 12 h light/dark cycle, free access to food and water). Handlings were made in such a way as to avoid stressful stimuli.
# (§2) The animals were stabled in groups of 6 per cage and treated for 2 weeks (15 days) with a PSC daily dose of 600 mg/kg by intraperitoneal route (i.p.).
# Immunization tests versus ram erythrocytes in Sprague-Dawley rat immunodepressed by cyclophosphamide (CTX)
# 0.3 Milliliters of ram erythrocytes (3%) in 0.9% sodium chloride solution were injected to Sprague-Dawley rats, both young (aged 10 weeks, weighing 150-200 g) and old (aged 24 months). A second injection was made on the 21st day after the first one. The rats were treated with PSC (600 mg/kg i.p.). Treatment started 3 days before immunization and continued until the 40th day of experiment. Cyclophosphamide (CTX) (150 mg/kg/die) was injected i.p. on the 3rd, 4th, and 5th day after immunization with erythrocytes.
# The animals were subdivided (6 animals each group) into the following experimental groups:
# 1) Non-immunized controls (CTRL);
# 2) Immunized controls (CTRL);
# 4) Immunized +CTX+PSC (600 mg/kg i.p.).
# The determination of serum antibodies levels was carried out by agglutination reaction: the serum in 0.9% sodium chloride solution was diluted from 1:2 to 1:1024 and ram erythrocytes at a concentration of 5×10^8 /ml were added. The determination of antibodies was carried out 2 hrs after incubation at 37° C. Each sample was assayed twice (Tables 11 and 12).
# peripheral lymphocytes = test: Blastization with concavaline A (ConA) of peripheral lymphocytes of PSC-treated rats; format: in vivo, Sprague-Dawley rats
# Method: as §1, §2
# Once the treatment with PSC previously described in the paragraph "Animals" was completed, the animals, both young and old, were sacrificed by decapitation and the blood collected in heparin-treated tubes. The blood samples were stratified on Ficoll-Paque gradient and centrifuged at 2500 rpm for 15 min. The lymphocytic cellular fraction was taken by suction and washed three times with a Lphysiological solution (0.9% NaCl). At the end of the treatment, the cells were resuspended in culture medium RPMI 1640 containing 10% FBS, counted (1×10^5 cells/0.1 ml/well) and incubated for 48 hrs at 37° C., in a 5% carbon dioxide environment. At the incubation end, mitogens concavaline A (ConA) and phytohaemagglutinin (PHA) were added to the cultures at a concentration of 1 μg/ml in a volume of 0.1 ml. Eighteen hours later, tritiated thymidine (0.01 ml) was added to the cultures, subsequently incubated for 3 hrs. At the incubation end, cells were sucked by cell harvester and the filters were placed in scintillation vials with addition of 5 ml of scintillating solution. Radioactivity (dpm) was measured 2 min. using a β-counter.
# The results obtained on ConA- or PHA-treated groups (controls), on PSC-treated groups (600 mg/kg), and on groups that had not been treated either with ConA or PSC are compared in Tables 14 and 15.
# [2] = Behaviour and death rate of the test groups under PSC treatment; settings: in vivo
# [3] = 600 mg/kg, analogous for ConA and PHA
compound,measurement,setting,value
"CC(=O)SC[C@H](NC(=O)[C@@H]1CCC(=O)N1)C(=O)O [PSC, 2-(S)-(2-pyrrolidone-5-(S)-carbonyl amido)-3-acetylmercapto propionic acid] (HELM PEPTIDE1{[Glp].C}|PEPTIDE2{[ac]}$PEPTIDE1,PEPTIDE2,2:R3-1:R2$$$V2.0)",restoring immunological functionality (in words),[1]; CTX-immunodepressed old rat,effective in restoring a correct immunological functionality
same,antibodies levels (in words),"[1]; intraperitoneal, young and old rats",causes a considerable increase in antibodies levels both in young (Table 11) and old (Table 12) rats
same,"serum antibodies level (agglutination, Days from immunization)","[1]; old rats, day 12",2
same,"serum antibodies level (agglutination, Days from immunization)","[1]; old rats, day 20",8
same,"serum antibodies level (agglutination, Days from immunization)","[1]; old rats, day 29",32
same,"serum antibodies level (agglutination, Days from immunization)","[1]; old rats, day 40",64
same,"serum antibodies level (agglutination, Days from immunization)","[1]; young rats, day 12",2
same,"serum antibodies level (agglutination, Days from immunization)","[1]; young rats, day 20",4
same,"serum antibodies level (agglutination, Days from immunization)","[1]; young rats, day 29",20
same,"serum antibodies level (agglutination, Days from immunization)","[1]; young rats, day 40",20
same,"blastization (tritiated thymidine incorporation), Young",peripheral lymphocytes; 600 mg/kg i.p. 15 days + ConA,714 ± 23 DPM × 100
same,"blastization (tritiated thymidine incorporation), Elderly","peripheral lymphocytes; 600 mg/kg i.p. 15 days + ConA, *P < 0.05",512 ± 27 DPM × 100
same,"incorporation index of tritiated thymidine, young rats (in words)",peripheral lymphocytes; [3],did not differ from controls
same,"index of thymidine incorporation, old rats (in words)",peripheral lymphocytes; [3],showed an increased index of thymidine incorporation in respect of controls
same,behaviour and death rate of the test groups (in words),[2],did not significantly affect the behaviour and death rate of the various test groups
same,death in tested groups (in words),[2],no death occurred in all tested groups
